Measured values published in publication PMC9426601 (mBio, 2022).
Values joined by “and” are separate entries in the source; they are usually repeats but may differ in a detail not shown here. Equal entries are not always repeated. Where two headings read alike, the source gives them in different places.

Assays:
A(H1N1pdm09)-WT [1] = experiment: yield reduction assay (YRA) in MDCK-SIAT cells; type: cell-based, influenza A(H1N1pdm09) virus; details: A(H1N1pdm09) 100% WT, mean ± SD
Protocol: (§1) To perform the yield reduction assay, MDCK-SIAT cells were seeded into a 96-well plate as described above. Cell monolayers were washed with PBS and infected with 100 virus particles (calculated based on virus titer determined by TCID50) for 90 min. […] The plates were incubated for 24 h at 35°C, and the supernatant was collected and quantified to determine the infectious viral titer by using a TCID50 assay.

A(H1N1pdm09) 100% WT = test system: A(H1N1pdm09) 100% WT; design: species or system ferrets (Mustela putorius furo); AUC (area under the curve of nasal wash viral titer): unit not given beside the values; details: in vivo
A(H3N2)-WT [2] = experiment: microbe, parasite or virus in culture; type: cell-based; details: Influenza A virus, H3N2, read-out: Baloxavir EC50 (nM) FRA
A(H3N2)-WT [3] = experiment: yield reduction assay (YRA) in MDCK-SIAT cells; type: cell-based, influenza A(H3N2) virus; details: A(H3N2) 100% WT, mean ± SD
Protocol: as §1

A(H1N1pdm09)-WT [4] = experiment: microbe, parasite or virus in culture; type: cell-based, influenza A(H1N1pdm09) virus; details: Influenza A virus, read-out: Baloxavir EC50 (nM) FRA
A(H3N2) 100% WT = test system: A(H3N2) 100% WT; design: species or system ferrets (Mustela putorius furo); details: in vivo
[5] = target: NA activity of A(H3N2)-WT (Influenza A virus, UniProt P06818); type: biochemical
[6] = target: NA activity of A(H1N1pdm09)-WT (Influenza A virus, UniProt C7FH46); type: biochemical; details: read-out: IC50 (nM), neuraminidase inhibitor
[7] = Influenza A virus, read-out: Baloxavir EC50 (nM) YRA
[8] = read-out: Oseltamivir IC50 (nM) YRA

SMILES | EC50 (A(H1N1pdm09)-WT [1]; [7]) [nM] | Duration of viral shedding (A(H1N1pdm09) 100% WT) [days] | reduction in AUC relative to placebo (A(H1N1pdm09) 100% WT) [%] | reduction in mean viral titer 1 day following antiviral treatment (A(H1N1pdm09) 100% WT) | reduction of duration of viral shedding vs placebo (A(H1N1pdm09) 100% WT) [days] | EC50 (A(H3N2)-WT [2]) [nM] | EC50 (A(H3N2)-WT [3]; [7]) [nM] | EC50 (A(H1N1pdm09)-WT [4]) [nM] | Duration of viral shedding (A(H3N2) 100% WT) | duration of viral shedding shorter than placebo (A(H3N2) 100% WT) [days] | reduction in AUC relative to placebo (A(H3N2) 100% WT) [%] | IC50 (A(H1N1pdm09)-WT [1]; [8]) [nM] | IC50 ([5]; read-out: Oseltamivir IC50 (nM) NIA) [nM] | AUC (area under the curve of nasal wash viral titer) (A(H1N1pdm09) 100% WT) | IC50 (A(H3N2)-WT [3]; [8]) [nM] | IC50 ([5]; read-out: IC50 (nM), neuraminidase inhibitor) [nM] | IC50 [6] [nM]
O=C1c2c(O)c(=O)ccn2N([C@@H]2c3ccccc3SCc3c2ccc(F)c3F)[C@@H]2COCCN12 [Baloxavir, baloxavir acid] | 0.3 ± 0.02 | 4 ± 0.8 | 29 | 1,000 fold | 2.3 | 0.6 ± 0.2 | 0.4 ± 0.1 | 1.2 ± 0.2 | 4.3 days and 4.3 ± 0.9 days | 1.7 | 28 | – | – | – | – | – | –
CCOC(=O)C1=C[C@@H](OC(CC)CC)[C@H](NC(C)=O)[C@@H](N)C1 [Oseltamivir, oseltamivir] | – | […] | – | no reduction | – | – | – | – | […] | – | – | […] | […] | […] | […] | – | –
CCC(CC)[C@H](NC(C)=O)[C@@H]1[C@H](O)[C@@H](C(=O)O)C[C@H]1N=C(N)N [Peramivir] | – | – | – | – | – | – | – | – | – | – | – | – | – | – | – | 0.19 ± 0.01 | 0.15 ± 0.03
